Test results as given in ChEMBL document CHEMBL1128795, “N-(Quinuclidin-3-yl)-2-(1-methyl-1H-indol-3-yl)-2-oxo-acetamide: a high affinity 5-HT3 receptor partial agonist” (Bioorg Med Chem Lett, 1995).

What was measured:
Type in all cases: functional
Rattus norvegicus [1] = organism: Rattus norvegicus; assay: Tested for effective concentration against 5-HT mediated depolarization of isolated rat vagus nerve
Rattus norvegicus [2] = organism: Rattus norvegicus; assay: Tested for maximum response in depolarization of isolated rat vagus nerve measured at dose 10 uM
[3] = biological target: T1, Serotonin 3 (5-HT3) receptor (Rattus norvegicus) (UniProt P35563+Q9JJ16); assay: Tested for % decrease in heart rate relative to pre-dose control against 2-methyl-5-HT induced bradycardia (von Bezold-Jarisch (B-J) reflex) in anesthetized rats; parameters: scale not given: the % may be the effect or the level left
[4] = biological target: T1, Serotonin 3 (5-HT3) receptor (Rattus norvegicus); assay: Agonist activity against 2-methyl-5-HT induced bradycardia (von Bezold-Jarisch (B-J) reflex) in anesthetized rats

NCCc1c[nH]c2ccc(O)cc12 [SEROTONIN]
EC50 (Rattus norvegicus [1]): 0.977 µM
Max response (Rattus norvegicus [2]): 340 uV

Cc1[nH]c2ccc(O)cc2c1CCN
EC50 (Rattus norvegicus [1]): 6.17 µM
Control [3]: 58%
ED50 [4]: 7.7 µg/kg
Max response (Rattus norvegicus [2]): 363 uV
